Legend:
[1] = test system: adult P42 FVB mice; experiment: noise-induced hearing loss in adult mice, Oseltamivir treatment 24 hours after noise exposure; assay type: in vivo, mouse
Text: The experimental procedures for the data shown in FIGS. 2A-B are as follows: Animals were anesthetized with avertin. Subcutaneous needle electrodes were inserted behind the pinna (inverting), vertex of the skull (non-inverting) and base of the tail (ground). Tone bursts of 5 ms duration with 0.5 ms cosine-squared envelopes delivered at a rate of 21 stimuli per second with alternating polarity were generated using BioSigRZ software and RZ6 multi I/O processor system (Tucker-Davis Technologies, FL). Stimuli were presented as open field via a speaker (MF1: TDT, FL) placed 10 cm in front of the pinna of the animal. Evoked responses were amplified (20×), bandpass filtered (300-3,000 Hz) and average of 512 responses of 10 ms duration was recorded. Stimulus intensity was decreased in 5 dB increments, starting from 100 dB SPL to 0 dB SPL. Thresholds at 4, 5.6, 8, 16, 22.6, 32, 45.2, and 64 kHz were identified by visual inspection from stacked waveforms as the lowest level at which reproducible response could be identified. Before the start of every session, stimulus presenting speaker (MF1) was calibrated with a ¼″ microphone (PCB-378C10; PCB Piezotronics, NY) that was also placed 10 cm in front of the speaker. Similar experiments have been previously described in Rai V. et al., Sci Rep. 2020 Sep. 16; 10(1):15167.
Now referring to FIG. 3A, adult P42 FVB mice began treatment with Oseltamivir administered oral gavage at 100 mg/kg body weight twice daily for three days beginning 24 hours following noise exposure of 100 dB, 8-16 kHz octave band, for two hours. Now referring to FIG. 3B, auditory brainstem response (ABR) were recorded 14 days after noise exposure of 100 dB, 8-16 kHz octave band, for two hours. […] Control is shown as carrier. Statistical analysis was done with repeated measures ANOVA between groups. Mean±SEM, P=**<0.01, ***<0.001, compared to noise alone by two-way ANOVA with Bonferroni post-hoc test.
Now referring to […], amplitudes of auditory Brainstem Response wave 1 from auditory brainstem response recording of FIG. 3A. The auditory Brainstem Response wave-1 amplitude represents the summed activity of the cochlear nerve. Mean wave-1 amplitudes was measured in the control and Oseltamivir-treated mice before and after noise exposure. Amplitudes from the 90 dB SPL stimuli were compared between groups using a two-factor ANOVA (group× frequency), and difference was detected between the noise alone group to Oseltamivir plus noise. at 14 days post-noise exposure.
Now referring to FIG. 3D, Distortion Product Otoacoustic Emissions (DPOAE) threshold shifts were measured in adult FVB mice 14 days after noise exposure of 100 dB, 8-16 kHz octave band, for two hours. DPOAE audiograms provide a direct indicator of cochlear sensitivity at the level of the OHC. […] Control is shown as carrier. Statistical analysis was done with repeated measures ANOVA between groups. Mean±SEM, P=**<0.01, ***<0.001, compared to noise alone by two-way ANOVA with Bonferroni post-hoc test.
Now referring to FIG. 3F, Oseltamivir administered post-noise exposure is shown to increase number of CtBP2 puncta. Number of CtBP2 puncta per IHC at the 16 kHz cochlear region were counted, data shown as mean±SEM, P=**<0.01, ***<0.001 by one-way ANOVA with Bonferroni post-hoc test, n=6-7 cochleae. An average of 4 CtBP2 puncta per IHC are restored compared to group exposed to noise without Oseltamivir treatment.
Experimental procedure for distortion product otoacoustic emissions (DPOAE) measurements, primary tones were set to generate 2f1-f2 distortion products at frequencies between 1 and 50 kHz, DPOAEs were measured for levels of f1 ranging from 10 to 80 dB SPL, with the levels of the f2 tone set 10 dB below that of the f1 tone. Similar experiments are described in Lukashkina A. V. et al., Scientific reports, July 12; 7(1), 5185. (2017). Similar Ctpb2/MyosinVI experiments are described in Liu Z et al., PLoS One. Feb. 20, 2014; 9(2):e89377 (2014).

[2] = test system: adult P42 FVB mice; experiment: noise-induced hearing loss in adult mice, Oseltamivir pre-treatment before noise exposure; assay type: in vivo, mouse
Experimental: Now referring to FIG. 2A, adult P42 FVB mice began treatment with Oseltamivir administered oral gavage at 100 mg/kg body weight twice daily for three days once 45 minutes before exposure and then for two days after noise exposure. Now referring to FIG. 2B, auditory brainstem response (ABR) were recorded 14 days after noise exposure of 100 dB, 8-16 kHz octave band, for two hours. […] Control is shown as carrier. Statistical analysis was done with repeated measures ANOVA between groups. Mean±SEM, P=**<0.01, ***<0.001, compared to noise alone by two-way ANOVA with Bonferroni post-hoc test.
The experimental procedures for the data shown in FIGS. 2A-B are as follows: Animals were anesthetized with avertin. Subcutaneous needle electrodes were inserted behind the pinna (inverting), vertex of the skull (non-inverting) and base of the tail (ground). Tone bursts of 5 ms duration with 0.5 ms cosine-squared envelopes delivered at a rate of 21 stimuli per second with alternating polarity were generated using BioSigRZ software and RZ6 multi I/O processor system (Tucker-Davis Technologies, FL). Stimuli were presented as open field via a speaker (MF1: TDT, FL) placed 10 cm in front of the pinna of the animal. Evoked responses were amplified (20×), bandpass filtered (300-3,000 Hz) and average of 512 responses of 10 ms duration was recorded. […]

[3] = test system: adult 12 weeks old CBA/CaJ mice; experiment: cisplatin-induced hearing loss in adult mice, multi-dose cisplatin regimen; assay type: in vivo, mouse
Experimental: Now referring to FIG. 4B, mice exposed to multi-dose cisplatin treatments show reduced reduction in wave 1 amplitude 16 kHz recording form 30-90 dB SPL, and Oseltamivir treatment at the dose of 50 mg/kg increased the 16-kHz wave-1 amplitude at 90 SPL.
Now referring to FIG. 4C, Oseltamivir (10 mg/kg and 50 mg/kg doses) increased the percent of total mice surviving 40 days after beginning of cisplatin exposure. Auditory Brainstem Response threshold shifts recorded as previously described. Similar wave-1 amplitude recordings have been described Hazlitt J et al., Med. Chem. 61, 7700-7709 (2018); Teitz et al., J. Exp. Med. 215, 1187-1203 (2018).
Now referring to FIG. 5A, confocal images of myosin-VI stained basal, middle, apical turn cochlear regions show outer hair cells of mice exposed to treatment of 50 mg/kg Oseltamivir alone or exposed to cisplatin with or without treatment of 10 or 50 mg/kg Oseltamivir. Now referring to FIG. 5B, count of outer hair cells per 160 μm for cochlear regions. Mean±SEM, P=*<0.05, **<0.01, compared to noise alone by two-way ANOVA with Bonferroni post-hoc test. N=5 cochleae counted per bar. Similar Myosin VI experiments are described in Liu Z et al., PLoS One. Feb. 20, 2014; 9(2):e89377 (2014).

[4] = test system: inner ear cell line HEI-OC1; experiment: high-throughput screen of FDA-approved drugs for cisplatin-induced cell-death protection; assay type: cell-based; details: 1,300 FDA-approved drugs screened
Text: Oseltamivir is an oral widely used anti-viral drug. Significant protection by Oseltamivir against hearing loss is shown herein in doses equivalent to those approved for human use.

[5] = test system: P3 FVB mouse cochlear explants; experiment: cisplatin-induced hair cell death in P3 FVB mouse cochlear explants; assay type: cell-based
Experimental: Now referring to FIG. 1A, a representation of the chemical structure of Oseltamivir phosphate is shown. […] The explants were treated for 24 hours. […] Percent protection for compound at the tested dosages were then plotted to show dose response curves, and IC50 were calculated.
Experimental procedures for the images shown in FIG. 1C are as follows: Mice were approved by the Institutional Animal Care and Use Committee (IACUC) at the Creighton University. Inner ears were collected from the post-natal day 3 (P3) FVB mice and transferred onto a filter (Millicell, PICM03050; Millipore) soaked in culturing medium. The filter was placed in 6-well culture plates with 1.2 mL medium outside the filter. […] Cells may be maintained in culture with the aid of Matrigel as previously described in Kelley and Driver, Curr. Protoc. Neurosci.

CCOC(=O)C1=C[C@@H](OC(CC)CC)[C@H](NC(C)=O)[C@@H](N)C1 [Oseltamivir, oseltamivir phosphate]
ABR threshold shift vs noise-exposed control ([1]; 100 mg/kg oral twice daily, three days, beginning 24 hours after noise, 14 days after noise): Significant protection against hearing loss
loss of CtBP2-puncta in inner hair cells vs noise alone ([1]; 16 kHz cochlear region): partially restores
CtBP2 puncta per IHC restored vs noise without Oseltamivir ([1]; 16 kHz cochlear region, post-noise administration, average): 4
ABR wave-1 amplitude vs noise exposure only group ([1]; 16 kHz, 90 dB SPL, 14 days post-noise exposure): higher amplitudes
DPOAE threshold shift vs noise-exposed control ([1]; 14 days after noise exposure of 100 dB, 8-16 kHz, two hours): Significant protection against hearing loss
protection, auditory Brainstem Response and DPOAE measurements ([1]; oral, 45 minutes before noise exposure and 24 hours after noise exposure, three consecutive days): 20-28 dB
protection against noise-induced hearing loss (ABR threshold shift) ([1]; treatment 24 hours after noise exposure, 100, 50 and 10 mg/kg, 8, 16, 32 kHz): protects
protection, auditory brainstem response measurements ([2]; 100 mg/kg oral gavage twice daily for three days, first dose 45 minutes before noise (100 dB, 8-16 kHz, two hours), ABR 14 days after noise): 24-28 dB
ABR threshold shift vs noise-exposed control ([2]; 100 mg/kg oral twice daily, three days, starting 45 minutes before noise, 14 days after noise): Significant protection against hearing loss
16-kHz wave-1 amplitude ([3]; 50 mg/kg Oseltamivir, 90 SPL, multi-dose cisplatin): increased
auditory brainstem response threshold shift vs cisplatin without treatment ([3]; 8, 16, and 32 kHz, 10 and 50 mg/kg Oseltamivir oral twice-daily, cisplatin 3 mg/kg IP, 3 cycles): lower
percent of total mice surviving ([3]; 40 days after beginning of cisplatin exposure, 10 mg/kg and 50 mg/kg): increased
outer hair cells, Myosin VI stained basal, middle, apical cochlear regions ([3]; multi-dose cisplatin regimen, 10 or 50 mg/kg Oseltamivir): preserved outer hair cells in all regions
hit in screen for cisplatin-induced cell-death protection [4]: one of the best hits
protection against cisplatin induced hair cell loss, phalloidin-stained middle turn images ([5]; 3 μM Oseltamivir and 150 μM Cisplatin): shows protection
IC50 ([5]; Mus musculus, Oseltamivir added 1 h before cisplatin (150 μM), 24 h, read-out: IC50 (percent protection from cisplatin-induced hair cell death)): 450 nM
LD50 ([5]; Oseltamivir alone, cochlear explants, 24 h): > 100 µM
